Laboratory results from US20110009489A1, “COSMETIC COMPOSITION COMPRISING VITAMIN U AS ACTIVE INGREDIENT FOR HEALING WOUNDS AND REDUCING WRINKLES” (CUSKIN CO., LTD., priority 2008, published 2011).

Key:
gastric mucosa [1] = settings: rabbit, vitamin U administered; cited from earlier work
gastric mucosa [2] = settings: pig, vitamin U administered; cited from earlier work
[3] = tested on: human epidermal keratinocytes; settings: vitamin U 10^−2, 10^−3, 10^−4 M, 1/10 growth factor, scratch; vs control not treated with vitamin U
Description: The following experiment was performed to investigate if vitamin U could increase the movement of human epidermal keratinocytes (hereinafter hEK) in vitro. The basic culture medium was obtained fromDefined Keratinocyte-SFM (Gibco, USA) with Defined Keratinocyte-SFM Growth supplement and growth factors. For the experiment, such an amount of 1/10 growth factor and vitamin U were added that the final concentrations of vitamin U should be 10^−2, 10^−3, and 10^−4 M. In the meantime, vitamin-free medium containing 1/10 growth factor was used for the control.
Human keratinocytes were cultured in a 6-well culture dish until the cells were grown at least 90% confluent. The cells were scratched out by using 2 mm micro tip. The fallen-off cells were washed out with PBS, followed by culture in another experimental medium.

collagen = settings: mouse, in vivo
Description: (§1) An experiment on Inhibitory effect on collagenase of the cosmetic composition containing vitamin U of the present invention was carried out. The experiment was carried for 4 weeks with the Atrichia mice divided into two groups, each of which is composed of 10 mice. Vitamin U containing cosmetic formula, prepared in cream with 10% vitamin U, was applied onto the back skin of the experimental group mouse every day. In the meantime, vitamin U-free ordinary formula was applied on the control. 4 weeks later, back skin was picked from both groups. RNA was extracted from the skin tissues, followed by real-time PCR to investigate the transcription level of collagenase mRNA (FIG. 8).

collagenase mRNA = settings: mouse, in vivo
Description: as §1

human dermal fibroblasts = settings: vitamin U 10^−2 or 10^−3 M, DMEM with 1% FBS, scratch; vs control not treated with vitamin
Description: The medium used for the wound healing experiment was obtained from DMEM with 1% FBS. Such an amount of vitamin U was added that the final vitamin U concentration should be 10^−2 or 10^−3 M. In the meantime, vitamin-free medium containing 1% FBS was used for the control.
Human fibroblasts were cultured in a 6-well culture dish until the cells were grown at least 90% confluent. The cells were scratched out by using 2 mm micro tip. The fallen-off cells were washed out with PBS, followed by culture in another experimental medium. Then, it was observed by photograph how many cells migrate into the room between scratches.

In the case of CS.CSCCC(N)C(=O)O.Cl (racemic) [vitamin U, DL-methionine methylsulfonium chloride], the “mucin secretion of gastric mucosa” value (gastric mucosa [1]) is listed as “increased”, the “ulcer of gastric mucosa” value (gastric mucosa [2]) is listed as “suppressed” and the migration of keratinocytes [3] is listed as “much more increased”. For the same molecule, the “collagen (Western blotting)” value (collagen) was “increase of collagen”, the “collagenase mRNA transcription” value (collagenase mRNA) was “significant inhibition” and the migration of fibroblasts (human dermal fibroblasts) was “much more increased”.
